Assay results as given in patent US10464947B2 (Incyte Corporation, priority 2013, dated 2019).
Read-outs that look alike come from different tables or passages of the source.

Test system: KMS.12.BM cells
Assay: KMS.12.BM Cell Viability Assay (Example B1)
Format: cell-based, human
Details: 3 days, Cell Titer-GLO, read-out: KMS cellular IC50
Description: KMS.12.BM cell line (human myeloma) was purchased from JCRB (Osaka, Japan) and maintained in RPMI with 10% FBS culture medium. To measure the cytotoxic activity of the compounds through ATP quantitation, the KMS.12.BM cells are plated in the RPMI culture medium at 5000 cells/well/per 100 μL into a 96-well polystyrene clear black tissue culture plate (Greiner-bio-one through VWR, NJ), in the presence or absence of a concentration range of test compounds. After 3 days, […] Cell Titer-GLO Luminescent (Promega, Madison, Wis.) cell culture agent is added to each well for 10 min. at room temperature to stabilize the luminescent signal. This determines the number of viable cells in culture based on quantitation of the ATP present, which signals the presence of metabolically active cells.

| Structure (SMILES) | IC50 (Homo sapiens, KMS-12-BM, 72 h) [nM] | IC50 (Homo sapiens, 72 h) [nM] | further results |
| --- | --- | --- | --- |
| Cc1noc(C)c1-c1ccc2c3c1CCC(c1ccccc1)n3c(=O)n2C (racemic) [Example 121, 7-(3,5-Dimethylisoxazol-4-yl)-1-methyl-4-phenyl-5,6-dihydro-4H-imidazo[4,5,1-ij]quinolin-2(1H)-one] | < 1000 |  |  |
| Cc1noc(C)c1-c1ccc2[nH]c(=O)n3c2c1OCC3c1cccnc1C#N (racemic) [Example 126, 3-[7-(3,5-Dimethylisoxazol-4-yl)-2-oxo-1,2,4,5-tetrahydroimidazo[1,5,4-de][1,4]benzoxazin-4-yl]pyridine-2-carbonitrile] | < 1000 |  |  |
| COC(=O)c1ncccc1C1COc2c(-c3c(C)noc3C)ccc3[nH]c(=O)n1c23 (racemic) [Example 132, Methyl 3-[7-(3,5-dimethylisoxazol-4-yl)-2-oxo-1,2,4,5-tetrahydroimidazo[1,5,4-de][1,4]benzoxazin-4-yl]pyridine-2-carboxylate] |  | < 1000 |  |
| Cc1noc(C)c1-c1ccc2nc(N3CCC(C)(O)C3)n3c2c1OC[C@@H]3c1ccccn1 (mixture of isomers) [Example 146C, 1-[(4S)-7-(3,5-Dimethylisoxazol-4-yl)-4-pyridin-2-yl-4,5-dihydroimidazo[1,5,4-de][1,4]benzoxazin-2-yl]-3-methylpyrrolidin-3-ol] | < 1000 |  |  |
| Cc1noc(C)c1-c1ccc2[nH]c(=O)n3c2c1OCC3C1CCCO1 (single isomer, unassigned) [Example 18A, 7-(3,5-Dimethylisoxazol-4-yl)-4-(tetrahydrofuran-2-yl)-4,5-dihydroimidazo[1,5,4-de][1,4]benzoxazin-2(1H)-one] |  | < 1000 |  |
| Cc1noc(C)c1-c1ccc2[nH]c(=O)n3c2c1OCC3C1CCCO1 (single isomer, unassigned) [Example 18B, 7-(3,5-Dimethylisoxazol-4-yl)-4-(tetrahydrofuran-2-yl)-4,5-dihydroimidazo[1,5,4-de][1,4]benzoxazin-2(1H)-one] |  |  | IC50: < 1000 nM |
| Cc1noc(C)c1-c1ccc2nc(NC(C)CO)n3c2c1OCC3c1ccccc1 (single isomer, unassigned) [Example 31, 2-{[7-(3,5-Dimethylisoxazol-4-yl)-4-phenyl-4,5-dihydroimidazo[1,5,4-de][1,4]benzoxazin-2-yl]amino}propan-1-ol] |  |  | IC50: < 1000 nM |
| Cc1noc(C)c1-c1ccc2[nH]c(=O)n3c2c1OC(C(=O)N(C)C)C3c1ccccc1 (single isomer, unassigned) [Example 47B, 7-(3,5-Dimethylisoxazol-4-yl)-N,N-dimethyl-2-oxo-4-phenyl-1,2,4,5-tetrahydroimidazo[1,5,4-de][1,4]benzoxazine-5-carboxamide] | 1000 to 10000 |  |  |
| Cc1noc(C)c1-c1ccc2[nH]c(=O)n3c2c1OC(C(=O)NCCO)C3c1ccccc1 (single isomer, unassigned) [Example 48B, 7-(3,5-Dimethylisoxazol-4-yl)-N-(2-hydroxyethyl)-2-oxo-4-phenyl-1,2,4,5-tetrahydroimidazo[1,5,4-de][1,4]benzoxazine-5-carboxamide] |  | 1000 to 10000 |  |
| Cc1noc(C)c1-c1ccc2[nH]c(=O)n3c2c1OC(C)(C)C3c1ccccn1 (single isomer, unassigned) [Example 61A, 7-(3,5-Dimethylisoxazol-4-yl)-5,5-dimethyl-4-pyridin-2-yl-4,5-dihydroimidazo[1,5,4-de][1,4]benzoxazin-2(1H)-one] | < 1000 |  |  |
| Cc1noc(C)c1-c1ccc2[nH]c(=O)n3c2c1OC(CO)C3c1ccccn1 (single isomer, unassigned) [Example 62B, 7-(3,5-Dimethylisoxazol-4-yl)-5-(hydroxymethyl)-4-pyridin-2-yl-4,5-dihydroimidazo[1,5,4-de][1,4]benzoxazin-2(1H)-one] |  | < 1000 |  |
| Cc1noc(C)c1-c1ccc2[nH]c(=O)n3c2c1OC(CO)C3c1ccccn1 (single isomer, unassigned) [Example 62C, 7-(3,5-Dimethylisoxazol-4-yl)-5-(hydroxymethyl)-4-pyridin-2-yl-4,5-dihydroimidazo[1,5,4-de][1,4]benzoxazin-2(1H)-one] |  |  | IC50: < 1000 nM |
| Cc1noc(C)c1-c1ccc2[nH]c(=O)n3c2c1OCC3C1CCCCN1 (single isomer, unassigned) [Example 63A, 7-(3,5-Dimethylisoxazol-4-yl)-4-piperidin-2-yl-4,5-dihydroimidazo[1,5,4-de][1,4]benzoxazin-2(1H)-one 2,2,2-trifluoroacetate] | 1000 to 10000 |  |  |
| Cc1noc(C)c1-c1cc(C(C)O)c2[nH]c(=O)n3c2c1OC[C@@H]3c1ccccn1 (single isomer, unassigned) [Example 144B] |  |  | IC50: < 1000 nM |
| Cc1noc(C)c1-c1ccc2nc(N3CCC(C)(O)C3)n3c2c1OC[C@@H]3c1ccccn1 (single isomer, unassigned) [Example 146A] | < 1000 |  |  |
| Cc1noc(C)c1-c1ccc2nc(N3CCC(C)(O)C3)n3c2c1OC[C@@H]3c1ccccn1 (single isomer, unassigned) [Example 146B] |  |  | IC50: < 1000 nM |
| Cc1noc(C)c1-c1cc(Cl)c2[nH]c(=O)n3c2c1OCC3c1ccccn1 (single isomer, unassigned) [Example 266A, 9-chloro-7-(3,5-dimethylisoxazol-4-yl)-4-pyridin-2-yl-4,5-dihydroimidazo[1,5,4-de][1,4]benzoxazin-2(1H)-one] | < 1000 |  |  |

| Structure (SMILES) | IC50 (Homo sapiens, KMS-12-BM, 72 h) [nM] | IC50 (Homo sapiens, 72 h) [nM] | further results |
| --- | --- | --- | --- |
| Cc1noc(C)c1-c1cc(Br)c2[nH]c(=O)n3c2c1OCC3c1ccccn1 (single isomer, unassigned) [Example 267B, 9-bromo-7-(3,5-dimethylisoxazol-4-yl)-4-pyridin-2-yl-4,5-dihydroimidazo[1,5,4-de][1,4]benzoxazin-2(1H)-one] |  | < 1000 |  |
| Cc1noc(C)c1-c1ccc2[nH]c(=O)n3c2c1OCC3c1ccccc1 (stereo not drawn) [Example 1, 7-(3,5-Dimethylisoxazol-4-yl)-4-phenyl-4,5-dihydroimidazo[1,5,4-de][1,4]benzoxazin-2(1H)-one] |  | < 1000 |  |
| COc1cccc(C2COc3c(-c4c(C)noc4C)ccc4[nH]c(=O)n2c34)c1 (stereo not drawn) [Example 6, 7-(3,5-Dimethylisoxazol-4-yl)-4-(3-methoxyphenyl)-4,5-dihydroimidazo[1,5,4-de][1,4]benzoxazin-2(1H)-one] |  | < 1000 |  |
| Cc1n[nH]cc1-c1ccc2[nH]c(=O)n3c2c1OCC3c1ccccc1 (stereo not drawn) [Example 12, 7-(3-Methyl-1H-pyrazol-4-yl)-4-phenyl-4,5-dihydroimidazo[1,5,4-de][1,4]benzoxazin-2(1H)-one] |  | 1000 to 10000 |  |
| Cc1noc(C)c1-c1ccc2[nH]c(=O)n3c2c1OCC3c1cccc[n+]1[O-] (stereo not drawn) [Example 16, 7-(3,5-Dimethylisoxazol-4-yl)-4-(1-oxidopyridin-2-yl)-4,5-dihydroimidazo[1,5,4-de][1,4]benzoxazin-2(1H)-one] |  | < 1000 |  |
| Cc1noc(C)c1-c1ccc2[nH]c(=O)n3c2c1OCC3C1CCCCC1 (stereo not drawn) [Example 17, 4-Cyclohexyl-7-(3,5-dimethylisoxazol-4-yl)-4,5-dihydroimidazo[1,5,4-de][1,4]benzoxazin-2(1H)-one] |  | < 1000 |  |
| Cc1noc(C)c1-c1ccc2[nH]c(=O)n3c2c1OCC3c1ccc(F)cn1 (stereo not drawn) [Example 19, 7-(3,5-Dimethylisoxazol-4-yl)-4-(5-fluoropyridin-2-yl)-4,5-dihydroimidazo[1,5,4-de][1,4]benzoxazin-2(1H)-one] |  | < 1000 |  |
| CCOC(=O)C1Oc2c(-c3c(C)noc3C)ccc3[nH]c(=O)n(c23)C1c1ccccn1 (stereo not drawn) [Example 20, Ethyl 7-(3,5-dimethylisoxazol-4-yl)-2-oxo-4-pyridin-2-yl-1,2,4,5-tetrahydroimidazo[1,5,4-de][1,4]benzoxazine-5-carboxylate] | < 1000 |  |  |
| CCNC(=O)COc1ccccc1C1COc2c(-c3c(C)noc3C)ccc3[nH]c(=O)n1c23 (stereo not drawn) [Example 22, 2-{2-[7-(3,5-Dimethylisoxazol-4-yl)-2-oxo-1,2,4,5-tetrahydroimidazo[1,5,4-de][1,4]benzoxazin-4-yl]phenoxy}-N-ethylacetamide] |  | < 1000 |  |
| CCOC(=O)C1Oc2c(-c3c(C)noc3C)ccc3[nH]c(=O)n(c23)C1c1ccccc1 (stereo not drawn) [Example 23, Ethyl 7-(3,5-dimethylisoxazol-4-yl)-2-oxo-4-phenyl-1,2,4,5-tetrahydroimidazo[1,5,4-de][1,4]benzoxazine-5-carboxylate] |  | < 1000 |  |
| Cc1noc(C)c1-c1ccc2nc(NC(C)(C)CO)n3c2c1OCC3c1ccccc1 (stereo not drawn) [Example 33, 2-{[7-(3,5-Dimethylisoxazol-4-yl)-4-phenyl-4,5-dihydroimidazo[1,5,4-de][1,4]benzoxazin-2-yl]amino}-2-methylpropan-1-ol] | 1000 to 10000 |  |  |
| Cn1nccc1-c1ccc2[nH]c(=O)n3c2c1OCC3c1ccccc1 (stereo not drawn) [Example 35, 7-(1-Methyl-1H-pyrazol-5-yl)-4-phenyl-4,5-dihydroimidazo[1,5,4-de][1,4]benzoxazin-2(1H)-one] |  | < 1000 |  |
| Cn1nccc1-c1cc(Br)c2[nH]c(=O)n3c2c1OCC3c1ccccc1 (stereo not drawn) [Example 36, 9-Bromo-7-(1-methyl-1H-pyrazol-5-yl)-4-phenyl-4,5-dihydroimidazo[1,5,4-de][1,4]benzoxazin-2(1H)-one] |  | < 1000 |  |
| Cc1cc(-c2ccnn2C)c2c3c1[nH]c(=O)n3C(c1ccccc1)CO2 (stereo not drawn) [Example 37, 9-Methyl-7-(1-methyl-1H-pyrazol-5-yl)-4-phenyl-4,5-dihydroimidazo[1,5,4-de][1,4]benzoxazin-2(1H)-one] | < 1000 |  |  |
| Cc1noc(C)c1-c1ccc2ncn3c2c1OCC3c1ccccc1 (stereo not drawn) [Example 39, 7-(3,5-Dimethylisoxazol-4-yl)-4-phenyl-4,5-dihydroimidazo[1,5,4-de][1,4]benzoxazine] |  | < 1000 |  |
| Cc1noc(C)c1-c1ccc2nc(N3CCNCC3)n3c2c1OCC3c1ccccc1 (stereo not drawn) [Example 40, 7-(3,5-Dimethylisoxazol-4-yl)-4-phenyl-2-piperazin-1-yl-4,5-dihydroimidazo[1,5,4-de][1,4]benzoxazine] | < 1000 |  |  |
